In patent publication US20220041647A1, “ESTRA-1,3,5(10)-TRIENE COMPOUNDS CONDENSED IN POSITION 16(17) WITH A PYRAZOLE RING AS INHIBITORS OF 17-HSD1” (FORENDO PHARMA LTD, priority 2018, published 2022):

Key:
Format in all cases: biochemical
[1] = molecular target: T1, recombinant human 17β-HSD1 (Homo sapiens, UniProt P14061); test: Inhibition of recombinant human 17β-HSD1 (estrone to estradiol conversion, HPLC/radioactivity); settings: compound 100 nM; 30 nM estrone, 1 mM NADPH, 30 min RT
T1 construct: made in house; host or cells: Sd9 (Sf9) insect cells, baculovirus (Bac to Bac Expression System)
T1 sequence (P14061 1-328): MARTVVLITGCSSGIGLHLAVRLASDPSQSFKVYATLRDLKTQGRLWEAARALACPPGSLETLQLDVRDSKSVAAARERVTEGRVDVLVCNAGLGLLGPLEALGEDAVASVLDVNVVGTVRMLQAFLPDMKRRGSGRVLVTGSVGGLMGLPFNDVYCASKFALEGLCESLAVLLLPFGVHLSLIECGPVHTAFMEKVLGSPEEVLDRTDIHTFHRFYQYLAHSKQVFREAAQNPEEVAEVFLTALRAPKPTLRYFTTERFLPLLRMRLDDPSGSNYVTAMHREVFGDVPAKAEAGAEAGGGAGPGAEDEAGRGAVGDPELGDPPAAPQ
Protocol: 17β-HSD1 production and isolation: Recombinant baculovirus was generated by the “Bac to Bac Expression System” (Invitrogen). Recombinant bacmid was transfected to Sd9 insect cells using “Cellfectin Reagent” (Invitrogen). 60 h later cells were harvested; the microsomal fraction was isolated as described by Puranen, T. J., Poutanen, M. H., Peltoketo, H. E., Vihko, P. T. and Vihko, R. K. (1994) Site-directed mutagenesis of the putative active site of human 17 β-hydroxysteroid dehydrogenase type 1. Biochem. J. 304: 289-293. Aliquots were stored frozen until determination of enzymatic activity.
Assay—Inhibition of recombinant human 17β-HSD1: Recombinant protein (1 μg/ml) was incubated in 20 mM KH2PO4 pH 7.4 with 30 nM estrone (including 800 000 cpm/ml of ^3H-estrone) and 1 mM NADPH for 30 min at RT, in the presence of the potential inhibitor at concentrations 1 μM or 0.1 μM. Inhibitor stock solutions were prepared in DMSO. Final concentration of DMSO was adjusted to 1% in all samples. The enzyme reaction was stopped by addition of 10% trichloroacetic acid (final concentration). Samples were centrifuged in a microtiter plate at 4000 rpm for 10 min. Supernatants were applied to reverse phase HPLC on a Waters Symmetry C18 column, equipped with a Waters Sentry Guard column. Isocratic HPLC runs were performed at RT at a flow rate of 1 ml/min in acetonitrile:water 48:52 as running solvent. Radioactivity was monitored in the eluate by a Scintillation Analyzer. Total radioactivity for estrone and estradiol were determined in each sample and percent conversion of estrone to estradiol was calculated according to the following formula:
% conversion=100×{(cpm estradiol in sample with inhibitor)/[(cpm estrone in sample with inhibitor)+(cpm estradiol in sample with inhibitor)]}/{[(cpm estradiol in sample without inhibitor)/[(cpm estrone in sample without inhibitor)+(cpm estradiol in sample without inhibitor)]}.
(§1) Percent inhibition was calculated followingly: % inhibition=100−% conversion.

[2] = system: HSD1 enzyme that is expressed in rabbit placenta tissue; test: Inhibition of E1 to E2 conversion in rabbit placenta tissue homogenate; settings: compound 100 nM, 30 nM estrone, 1 mM β-NADPH, 30 min
Protocol: The assay is based on an enzymatic reaction where HSD1 enzyme that is expressed in rabbit placenta tissue converts its natural substance estrone (E1) to estradiol (E2) in the presence of a co-factor β-NADPH.
Homogenization of rabbit placenta tissue: Weight a piece of the frozen tissue into a Precellys ck28 bead tube. Add buffer solution (20 mM KH2PO4 with 1 mM EDTA, pH 7.4) in 1:2 ratio (e.g. 300 mg of tissue:600 μl reaction buffer solution). Insert the bead tubes to homogenizer and homogenize 2×30 s. 6000 rpm.
Centrifugated 5 min., 2600 rpm at +4° C. and collect supernatant. Aliquots of homogenate are stored in −80° C.
Assay—Inhibition of E1 to E2 conversion in rabbit placenta tissue: The reaction takes place in a buffer solution (20 mM KH2PO4 with 1 mM EDTA, pH 7,4), including appropriate amount of rabbit placenta homogenate, co-factor (1 mM β-NADPH), Substrate (30 nM estrone), labelled substrate as tracer (5 nM [^3H]-estrone), and the potential inhibitor at concentrations 1 μM or 0.1 μM. Inhibitor stock solutions were prepared in DMSO. Final concentration of DMSO was adjusted to 1% in all samples. During a 30-minute incubation part of the estrone is converted to estradiol. The reaction is stopped by lowering the pH to 1 with 10% trichloro acetic acid (TCA). The substrate and conversion products are analyzed by HPLC and a Scintillation counter analyzer. Total radioactivity for estrone and estradiol were determined in each sample and percent conversion of estrone to estradiol was calculated according to the following formula:
% conversion=100×{(cpm estradiol in sample with inhibitor)/[(cpm estrone in sample with inhibitor)+(cpm estradiol in sample with inhibitor)]}/{(cpm estradiol in sample without inhibitor)/[(cpm estrone in sample without inhibitor)+(cpm estradiol in sample without inhibitor)]}.
as §1

[3] = molecular target: T2, recombinant human 17β-HSD2 (Homo sapiens, UniProt P37059); test: Inhibition of recombinant human 17β-HSD2 (estradiol to estrone conversion, HPLC/radioactivity); settings: compound 1 μM; 50 nM estradiol, 1 mM NADH, 30 min RT
T2 construct: made in house; host or cells: Sd9 (Sf9) insect cells, baculovirus (Bac to Bac Expression System)
T2 sequence (P37059 1-387): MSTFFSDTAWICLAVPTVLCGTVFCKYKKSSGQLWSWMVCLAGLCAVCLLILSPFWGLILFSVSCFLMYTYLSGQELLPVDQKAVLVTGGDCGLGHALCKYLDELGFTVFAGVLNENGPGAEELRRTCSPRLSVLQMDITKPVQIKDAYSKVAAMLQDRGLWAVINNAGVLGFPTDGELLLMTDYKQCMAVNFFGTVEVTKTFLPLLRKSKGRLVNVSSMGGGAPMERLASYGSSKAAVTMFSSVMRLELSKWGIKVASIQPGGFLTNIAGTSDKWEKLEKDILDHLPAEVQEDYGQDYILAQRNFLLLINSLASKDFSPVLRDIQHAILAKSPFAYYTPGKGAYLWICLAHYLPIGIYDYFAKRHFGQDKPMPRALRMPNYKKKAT
Protocol: 17β-HSD2 production and isolation: Similarly to 173-HSD1 the Recombinant baculovirus was generated by the “Bac to Bac Expression System” (Invitrogen). Recombinant bacmid was transfected to Sd9 insect cells using “Cellfectin Reagent” (Invitrogen). 60 h later cells were harvested and supernatant were fractionated by the following protocol: • cells were dissolved into 40 ml of A-buffer (40 mM TRIS, pH8.0, 20% glycerol, 20 μM NAD, 0.4 mM PMSF, 150 mM NaCl, 0.5% dodecyl-β-maltoside+protease inhibitor cocktail) • cells were sonicated • lysate was incubated on ice for 15 min • lysate was centrifuged 5000 rpm 15 min, +4° C. • centrifugation of the supernatant 180 000 g 30 min, +4° C. • pellet was dissolved into 8 ml of A-buffer • not resuspended material was removed by centrifugation 5000 rpm 15 min, +4° C. • the clear supernatant was divided into 100 μl aliquots and were stored frozen until determination of enzymatic activity.
The amount of 173-HSD2 was analysed by immunoblotting and total protein concentration of each extract batch was determined.
Assay—Inhibition of recombinant human 17β-HSD2: Recombinant protein (4 μg/ml) was incubated in 20 mM KH2PO4 pH 8.5 with 50 nM estradiol (including 800 000 cpm/ml of ^3H-estradiol) and 1 mM NADH for 30 min at RT, in the presence of the potential inhibitor at concentrations 1 μM or 0.1 μM. Inhibitor stock solutions were prepared in DMSO. Final concentration of DMSO was adjusted to 1% in all samples. The enzyme reaction was stopped by addition of 10% trichloroacetic acid (final concentration). Samples were centrifuged in a microtiter plate at 4000 rpm for 10 min. Supernatants were applied to reverse phase HPLC on a Waters Symmetry C18 column, equipped with a Waters Sentry Guard column. Isocratic HPLC runs were performed at RT at a flow rate of1 ml/min in acetonitrile:water 48:52 as running solvent. Radioactivity was monitored in the eluate by a Scintillation Analyzer. Total radioactivity for estrone and estradiol were determined in each sample and percent conversion of estradiol to estrone was calculated according to the following formula:
% conversion=100×{(cpm estrone in sample with inhibitor)/[(cpm estradiol in sample with inhibitor)+(cpm estrone in sample with inhibitor)]}/{[(cpm estrone in sample without inhibitor)/[(cpm estradiol in sample without inhibitor)+(cpm estrone in sample without inhibitor)]}.
as §1

| Compound | inhibition at 0.1 µM [1] [%] | Rabbit placenta inhibition % @100 nM [2] [%] | inhibition at 1 µM [3] [%] |
| --- | --- | --- | --- |
| Cc1nnc(NC(=O)CC[C@@H]2c3c[nH]nc3[C@@]3(C)CCC4c5cccc(F)c5CCC4C23)o1 (stereo partly drawn) [Compound 66, 3-((8aS,12S)-3-fluoro-8a-methyl-1,2,6b,7,8,8a,10,12,12a,12b-decahydronaphtho[2′,1′:4,5]indeno[1,2-c]pyrazol-12-yl)-N-(5-methyl-1,3,4-oxadiazol-2-yl)propanamide] | 74 | 39 | 3 |
| C[C@]12CCC3c4cccc(F)c4CCC3C1[C@H](CCC(=O)NN1CCCCC1)c1c[nH]nc12 (stereo partly drawn) [Compound 69, 3-((8aS,12S)-3-fluoro-8a-methyl-1,2,6b,7,8,8a,10,12,12a,12b-decahydronaphtho[2′,1′:4,5]indeno[1,2-c]pyrazol-12-yl)-N-(piperidin-1-yl)propanamide] | 93 | 10 | 1 |
| CN1CCC(N2CCN(C(=O)CC[C@@H]3c4c[nH]nc4[C@@]4(C)CCC5c6cccc(F)c6CCC5C34)CC2)CC1 (stereo partly drawn) [Compound 75, 3-((8aS,12S)-3-fluoro-8a-methyl-1,2,6b,7,8,8a,10,12,12a,12b-decahydronaphtho[2′,1′:4,5]indeno[1,2-c]pyrazol-12-yl)-1-(4-(1-methylpiperidin-4-yl)piperazin-1-yl)propan-1-one] | 71 | 15 | 2 |
| Cc1cc(NC(=O)CC[C@@H]2c3c[nH]nc3[C@@]3(C)CCC4c5cccc(F)c5CCC4C23)no1 (stereo partly drawn) [Compound 78, 3-((8aS,12S)-3-fluoro-8a-methyl-1,2,6b,7,8,8a,10,12,12a,12b-decahydronaphtho[2′,1′:4,5]indeno[1,2-c]pyrazol-12-yl)-N-(5-methylisoxazol-3-yl)propanamide] | 87 | 39 | 3 |
| C[C@]12CCC3c4cccc(F)c4CCC3C1[C@H](CCC(=O)Nc1nncs1)c1c[nH]nc12 (stereo partly drawn) [Compound 81, 3-((8aS,12S)-3-fluoro-8a-methyl-1,2,6b,7,8,8a,10,12,12a,12b-decahydronaphtho[2′,1′:4,5]indeno[1,2-c]pyrazol-12-yl)-N-(1,3,4-thiadiazol-2-yl)propanamide] | 81 | 31 | 3 |
| CC(C)(C)c1cc(NC(=O)CC[C@@H]2c3c[nH]nc3[C@@]3(C)CCC4c5ccc(F)cc5CCC4C23)no1 (stereo partly drawn) [Compound 102, N-(5-(tert-butyl)isoxazol-3-yl)-3-((8aS,12 S)-4-fluoro-8a-methyl-1,2,6b,7,8,8a,10,12,12a,12b-decahydronaphtho[2′,1′:4,5]indeno[1,2-c]pyrazol-12-yl)propanamide] | 80 | 19 | 8 |
| C[C@]12CCC3c4ccc(F)cc4CCC3C1[C@H](CCC(=O)Nc1cccc(F)n1)c1c[nH]nc12 (stereo partly drawn) [Compound 105, 3-((8aS,12S)-4-fluoro-8a-methyl-1,2,6b,7,8,8a,10,12,12a,12b-decahydronaphtho[2′,1′:4,5]indeno[1,2-c]pyrazol-12-yl)-N-(6-fluoropyridin-2-yl)propanamide] | 82 | 28 | 9 |
| COc1ccc(NC(=O)CC[C@@H]2c3c[nH]nc3[C@@]3(C)CCC4c5ccc(F)cc5CCC4C23)nn1 (stereo partly drawn) [Compound 108, 3-((8aS,12S)-4-fluoro-8a-methyl-1,2,6b,7,8,8a,10,12,12a,12b-decahydronaphtho[2′,1′:4,5]indeno[1,2-c]pyrazol-12-yl)-N-(6-methoxypyridazin-3-yl)propanamide] | 56 | 45 | -2 |
| Cc1ccc(NC(=O)CC[C@@H]2c3c[nH]nc3[C@@]3(C)CCC4c5ccc(F)cc5CCC4C23)nn1 (stereo partly drawn) [Compound 111, 3-((8aS,12S)-4-fluoro-8a-methyl-1,2,6b,7,8,8a,10,12,12a,12b-decahydronaphtho[2′,1′:4,5]indeno[1,2-c]pyrazol-12-yl)-N-(6-methylpyridazin-3-yl)propanamide] | 48 | 55 | 1 |
| C[C@]12CCC3c4ccc(F)cc4CCC3C1[C@H](CCC(=O)Nc1cccnn1)c1c[nH]nc12 (stereo partly drawn) [Compound 114, 3-((8aS,12S)-4-fluoro-8a-methyl-1,2,6b,7,8,8a,10,12,12a,12b-decahydronaphtho[2′,1′:4,5]indeno[1,2-c]pyrazol-12-yl)-N-(pyridazin-3-yl)propanamide] | 53 | 43 | -1 |
